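Where inhibition never reached the appropriate level, the endpoint shown equals the highest concentration tested. Otherwise, values were interpolated linearly from a five-concentration, 48-hour dose response in 96-well plates. Here, GI50 denotes the concentration required for 50% inhibition of growth. TGI is the concentration that stops growth completely.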
Key:
Test in all cases: NCI anticancer screen, dose series, 48 h
[1] = test system: DU-145 prostate
[2] = test system: LOX IMVI melanoma
[3] = test system: 786-0 renal
[4] = test system: UO-31 renal
[5] = test system: PC-3 prostate
[6] = test system: EKVX NSCLC
[7] = test system: RPMI-8226 leukemia
[8] = test system: COLO 205 colon
[9] = test system: M14 melanoma
[10] = test system: HOP-62 NSCLC
[11] = test system: BT-549 breast
[12] = test system: NCI/ADR-RES ovarian
[13] = test system: MDA-MB-231 breast
[14] = test system: ACHN renal
[15] = test system: A549 NSCLC
[16] = test system: SF-539 CNS
[17] = test system: MALME-3M melanoma
[18] = test system: KM12 colon
[19] = test system: SF-268 CNS
[20] = test system: SNB-19 CNS
[21] = test system: NCI-H522 lung
[22] = test system: SF-295 CNS
[23] = test system: HOP-92 NSCLC
[24] = test system: IGROV1 ovarian
[25] = test system: OVCAR-8 ovarian
[26] = test system: SR leukemia
[27] = test system: OVCAR-5 ovarian
[28] = test system: UACC-62 melanoma
[29] = test system: RXF 393 renal
[30] = test system: NCI-H460 lung
[31] = test system: MDA-MB-435
[32] = test system: CCRF-CEM leukemia
[33] = test system: SK-OV-3 ovarian
[34] = test system: SW-620 colon
[35] = test system: NCI-H226 lung
[36] = test system: U251 CNS
[37] = test system: HCC-2998 colon
[38] = test system: HS 578T breast
[39] = test system: SK-MEL-28 melanoma
[40] = test system: SNB-75 CNS
[41] = test system: SK-MEL-5 melanoma
[42] = test system: OVCAR-4 ovarian
[43] = test system: NCI-H23 lung
[44] = test system: K-562 leukemia
[45] = test system: SK-MEL-2 melanoma
[46] = test system: HT29 colon
[47] = test system: CAKI-1 renal
[48] = test system: MOLT-4 leukemia
[49] = test system: TK-10 renal
[50] = test system: HL-60(TB) leukemia
[51] = test system: UACC-257 melanoma
[52] = test system: SN12C renal
[53] = test system: A498 renal

CCN(CC)c1ccc2c(c1)Oc1nc(N)c(C#N)c(N)c1C2Sc1ccc(C)cc1 (stereo unspecified)
GI50 [1]: 1800 nM | TGI [1]: 3.21 µM | GI50 [2]: 320 nM | TGI [2]: 1060 nM | GI50 [3]: 1880 nM | TGI [3]: 3.45 µM | GI50 [4]: 1350 nM | TGI [4]: 2630 nM | GI50 [5]: 1260 nM | TGI [5]: 2600 nM | GI50 [6]: 605 nM | TGI [6]: 2050 nM | GI50 [7]: 1900 nM | TGI [7]: 5.61 µM | GI50 [8]: 1810 nM | TGI [8]: 3.49 µM | GI50 [9]: 1570 nM | TGI [9]: 3.22 µM | GI50 [10]: 1760 nM | TGI [10]: 3.29 µM | GI50 [11]: 1160 nM | TGI [11]: 2500 nM | GI50 [12]: 2190 nM | TGI [12]: 5.04 µM | GI50 [13]: 1450 nM | TGI [13]: 2810 nM | GI50 [14]: 1580 nM | TGI [14]: 2930 nM | GI50 [15]: 1930 nM | TGI [15]: 3.84 µM | GI50 [16]: 1600 nM | TGI [16]: 2960 nM | GI50 [17]: 1680 nM | TGI [17]: 3.06 µM | GI50 [18]: 1050 nM | TGI [18]: 2280 nM | GI50 [19]: 1670 nM | TGI [19]: 3.25 µM | GI50 [20]: 1360 nM | TGI [20]: 2670 nM | GI50 [21]: 1750 nM | TGI [21]: 3.17 µM | GI50 [22]: 1750 nM | TGI [22]: 3.19 µM | GI50 [23]: 1310 nM | TGI [23]: 2600 nM | GI50 [24]: 1090 nM | TGI [24]: 2360 nM | GI50 [25]: 1510 nM | TGI [25]: 3.08 µM | GI50 [26]: 261 nM | TGI [26]: 834 nM | GI50 [27]: 1710 nM | TGI [27]: 3.12 µM | GI50 [28]: 1670 nM | TGI [28]: 3.07 µM | GI50 [29]: 1770 nM | TGI [29]: 3.22 µM | GI50 [30]: 1390 nM | TGI [30]: 3.02 µM | GI50 [31]: 1250 nM | TGI [31]: 2540 nM | GI50 [32]: 366 nM | TGI [32]: 2110 nM | GI50 [33]: 1940 nM | TGI [33]: 3.47 µM | GI50 [34]: 1500 nM | TGI [34]: 3.21 µM | GI50 [35]: 2010 nM | TGI [35]: 4.62 µM | GI50 [36]: 1200 nM | TGI [36]: 2740 nM | GI50 [37]: 1780 nM | TGI [37]: 3.32 µM | GI50 [38]: 1590 nM | TGI [38]: 4.57 µM | GI50 [39]: 1700 nM | TGI [39]: 3.09 µM | GI50 [40]: 1340 nM | TGI [40]: 2630 nM | GI50 [41]: 1760 nM | TGI [41]: 3.15 µM | GI50 [42]: 1750 nM | TGI [42]: 3.18 µM | GI50 [43]: 1260 nM | TGI [43]: 2640 nM | GI50 [44]: 2300 nM | TGI [44]: > 100 µM | GI50 [45]: 1720 nM | TGI [45]: 3.12 µM | GI50 [46]: 1840 nM | TGI [46]: 3.41 µM | GI50 [47]: 1460 nM | TGI [47]: 2780 nM | GI50 [48]: 824 nM | TGI [48]: 4.3 µM | GI50 [49]: 2960 nM | TGI [49]: 4.48 µM | GI50 [50]: 564 nM | TGI [50]: 3.14 µM | GI50 [51]: 1850 nM | TGI [51]: 3.39 µM | GI50 [52]: 1680 nM | TGI [52]: 3.15 µM | GI50 [53]: 1890 nM | TGI [53]: 3.3 µM
